We go through 15 molecules from PMC9609971, “Benzimidazole Bearing Thiosemicarbazone Derivatives Act as Potent α-Amylase and α-Glucosidase Inhibitors; Synthesis, Bioactivity Screening and Molecular Docking Study” (Molecules, 2022).

Experiment [1] concerns the target T1, Porcine pancreatic α-amylase (Sus scrofa, UniProt P00690).
T1 construct: α-amylase solution (Porcine pancreatic α-amylase); from tissue; host or cells: porcine pancreas (from the enzyme's name only)
T1 sequence (P00690 16-511): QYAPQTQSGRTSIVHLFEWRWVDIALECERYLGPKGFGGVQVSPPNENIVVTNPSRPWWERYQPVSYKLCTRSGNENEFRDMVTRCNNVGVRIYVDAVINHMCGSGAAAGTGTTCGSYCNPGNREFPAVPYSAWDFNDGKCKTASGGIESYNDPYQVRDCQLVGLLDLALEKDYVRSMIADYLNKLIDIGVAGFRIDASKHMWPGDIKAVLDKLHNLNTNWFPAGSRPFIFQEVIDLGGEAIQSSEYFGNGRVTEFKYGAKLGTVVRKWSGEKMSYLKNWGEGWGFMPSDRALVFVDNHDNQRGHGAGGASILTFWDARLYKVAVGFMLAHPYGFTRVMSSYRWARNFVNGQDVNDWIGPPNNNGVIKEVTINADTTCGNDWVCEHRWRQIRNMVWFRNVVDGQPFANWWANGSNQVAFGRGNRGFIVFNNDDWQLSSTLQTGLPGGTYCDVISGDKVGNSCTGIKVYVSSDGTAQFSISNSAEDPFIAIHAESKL
The experiment in a line: In vitro α-amylase activity assay (starch/dinitrosalicylic acid). Type of experiment: biochemical. The conditions noted are these: triplicate; ± SEM. The method, then:
α-Amylase inhibition was determined by an assay modified by Kwon, Apostolidis & Shetty. A total of 40 μL of sample and 40 μL of 0.02 M sodium phosphate buffer (pH 6.9 with 0.006 M sodium chloride) containing α-amylase solution (Porcine pancreatic α-amylase) (0.5 mg/mL) were incubated at 25 °C for 10 min. After pre-incubation, 40 μL of a 1% starch solution in 0.02 M sodium phosphate buffer (pH 6.9 with 0.006 M sodium chloride) was added to each tube at 5 s intervals. The reaction mixtures were then incubated at 25 °C for 10 min. The reaction was stopped with 100 μL of dinitrosalicylic acid color reagent. The test tubes were then incubated in a boiling water bath for 5 min and cooled to room temperature. The reaction mixture was then diluted after adding 900 μL of distilled water, and the absorbance was measured at 540 nm. […] All reactions were carried out in triplicate.

Experiment [2] addresses crude intestinal α-glucosidase. The experiment in a line: In vitro α-glucosidase activity assay (p-nitrophenyl-α-D-glucopyranoside substrate). To be noted: triplicate; ± SEM. Type of experiment: biochemical. The method, then:
The α-Glucosidase activity was determined by a slight modification to the already-reported method. In a 96-well microplate, 10 μL of test samples (5 mg/mL DMSO solution) were reconstituted in 100 μL of 100 mM-phosphate buffer (pH 6.8) and incubated with 50 μL of crude intestinal α-glucosidase for 5 min before 50 μL substrate (5 mM, p-nitrophenyl-α-D-glucopyranoside prepared in the same buffer) was added. The release of p-nitrophenol was measured at 405 nm spectrophotometrically for 5 min after incubation with the substrate. Individual blanks for test samples were prepared to correct background absorbance where the substrate was replaced with 50 μL of the buffer. The control sample contained 10 μL DMSO in place of the test samples. All reactions were carried out in triplicate.
The percentage of enzyme inhibition was calculated as (1 − B/A) × 100.
Where A represents the absorbance of control without test samples, and B represents absorbance in the presence of test samples.

Turning to `O=[N+]([O-])c1cccc(/C=N/NC(=S)NN=C(CSc2nc3ccccc3[nH]2)c2ccc(Cl)c(Cl)c2)c1` [derivative 14, N′-(2-((1H-Benzo[d]imidazol-2-yl)thio)-1-(3,4-dichlorophenyl)ethylidene)-2-((E)-3-nitrobenzylidene)hydrazine-1-carbothiohydrazide], the IC50 (usually the concentration that gives 50% inhibition) came out at 6.1 ± 0.2 µM in experiment [1] and 7.1 ± 0.01 µM in experiment [2].

Take `O=[N+]([O-])c1ccccc1/C=N/NC(=S)NN=C(CSc1nc2ccccc2[nH]1)c1ccc(Br)cc1` [derivative 15, N′-(2-((1H-Benzo[d]imidazol-2-yl)thio)-1-(4-bromophenyl)ethylidene)-2-((E)-2-nitrobenzylidene)hydrazine-1-carbothiohydrazide]: the results for the IC50 in experiment [1] and in experiment [2] were 17.1 ± 0.01 µM and 18.1 ± 0.2 µM, respectively.

In the case of “N′-((Z)-2-((1H-Benzo[d]imidazol-2-yl)thio)-1-(3-fluorophenyl)ethylidene)-2-((E)-2-methyl-4-nitrobenzylidene)hydrazine-1-carbothiohydrazide [derivative 20]”, the IC50 stood at 1.4 ± 0.01 µM in experiment [1] and 1.6 ± 0.2 µM in experiment [2].

Regarding `Oc1ccc(/C=N/NC(=S)NN=C(CSc2nc3ccccc3[nH]2)c2ccc(Cl)c(Cl)c2)cc1` [derivative 12, N′-(2-((1H-Benzo[d]imidazol-2-yl)thio)-1-(3,4-dichlorophenyl)ethylidene)-2-((E)-4-hydroxybenzylidene)hydrazine-1-carbothiohydrazide], the concentration for half-maximal inhibition (IC50) in experiment [1] was found to be 1.1 ± 0.2 µM; in experiment [2], 2.2 ± 0.2 µM.

With `Fc1cccc(/C=N/NC(=S)N/N=C(\CSc2nc3ccccc3[nH]2)c2cccc(F)c2)c1` [derivative 19], the IC50 worked out at 1.2 ± 0.2 µM in experiment [1] and 1.3 ± 0.2 µM in experiment [2].

`O=[N+]([O-])c1ccc(/C=N/NC(=S)NN=C(CSc2nc3ccccc3[nH]2)c2ccc(-c3ccccc3)cc2)cc1` [derivative 8, N′-(2-((1H-Benzo[d]imidazol-2-yl)thio)-1-([1,1′-biphenyl]-4-yl)ethylidene)-2-((E)-4-nitrobenzylidene)hydrazine-1-carbothiohydrazide]: the IC50 is 15.2 ± 0.2 µM in experiment [1] and 17.2 ± 0.1 µM in experiment [2].

`O=[N+]([O-])c1ccccc1/C=N/NC(=S)NN=C(CSc1nc2ccccc2[nH]1)c1ccc(-c2ccccc2)cc1` [derivative 7, N′-(2-((1H-Benzo[d]imidazol-2-yl)thio)-1-([1,1′-biphenyl]-4-yl)ethylidene)-2-((E)-2-nitrobenzylidene)hydrazine-1-carbothiohydrazide]: the IC50 in experiment [1] was determined as 16.1 ± 0.01 µM; in experiment [2], 14.2 ± 0.1 µM.

Regarding `O=[N+]([O-])c1ccc(/C=N/NC(=S)NN=C(CSc2nc3ccccc3[nH]2)c2ccc(Cl)c(Cl)c2)cc1` [derivative 13, N′-(2-((1H-Benzo[d]imidazol-2-yl)thio)-1-(3,4-dichlorophenyl)ethylidene)-2-((E)-4-nitrobenzylidene)hydrazine-1-carbothiohydrazide], the values for the IC50 in experiment [1] and in experiment [2] were 2.1 ± 0.2 µM and 3.1 ± 0.2 µM, respectively.

On to `O=[N+]([O-])c1cccc(/C=N/NC(=S)NN=C(CSc2nc3ccccc3[nH]2)c2ccc(-c3ccccc3)cc2)c1` [derivative 9, N′-(2-((1H-Benzo[d]imidazol-2-yl)thio)-1-([1,1′-biphenyl]-4-yl)ethylidene)-2-((E)-3-nitrobenzylidene)hydrazine-1-carbothiohydrazide], for which the half-inhibitory concentration (IC50) was 13.1 ± 0.1 µM in experiment [1] and 14.2 ± 0.2 µM in experiment [2].

As to `O=[N+]([O-])c1ccc(/C=N/NC(=S)NN=C(CSc2nc3ccccc3[nH]2)c2ccc(Br)cc2)cc1` [derivative 17, N′-(2-((1H-Benzo[d]imidazol-2-yl)thio)-1-(4-bromophenyl)ethylidene)-2-((E)-4-nitrobenzylidene)hydrazine-1-carbothiohydrazide], the half-inhibitory concentration (IC50) was determined as 15.1 ± 0.2 µM in experiment [1] and 16.1 ± 0.01 µM in experiment [2].

On to `O=[N+]([O-])c1cccc(/C=N/NC(=S)NN=C(CSc2nc3ccccc3[nH]2)c2ccc(Br)cc2)c1` [derivative 18, N′-(2-((1H-Benzo[d]imidazol-2-yl)thio)-1-(4-bromophenyl)ethylidene)-2-((E)-3-nitrobenzylidene)hydrazine-1-carbothiohydrazide], for which the IC50 came to 13.2 ± 0.2 µM in experiment [1] and 14.1 ± 0.01 µM in experiment [2].

In the case of `O=[N+]([O-])c1cccc(/C=N/NC(=S)N/N=C(\CSc2nc3ccccc3[nH]2)c2ccccc2)c1` [derivative 21, N′-((Z)-2-((1H-Benzo[d]imidazol-2-yl)thio)-1-phenylethylidene)-2-((E)-3-nitrobenzylidene)hydrazine-1-carbothiohydrazide], the concentration for half-maximal inhibition (IC50) is 21.1 ± 0.01 µM in experiment [1] and 22.1 ± 0.2 µM in experiment [2].

Turning to `O=[N+]([O-])c1ccccc1/C=N/NC(=S)NN=C(CSc1nc2ccccc2[nH]1)c1ccc(Cl)c(Cl)c1` [derivative 11, N′-(2-((1H-Benzo[d]imidazol-2-yl)thio)-1-(3,4-dichlorophenyl)ethylidene)-2-((E)-2-nitrobenzylidene)hydrazine-1-carbothiohydrazide], the half-inhibitory concentration (IC50) in experiment [1] turned out to be 3.1 ± 0.1 µM; in experiment [2], 4.2 ± 0.1 µM.

As for `Oc1ccc(/C=N/NC(=S)NN=C(CSc2nc3ccccc3[nH]2)c2ccc(Br)cc2)cc1` [derivative 16, N′-(2-((1H-Benzo[d]imidazol-2-yl)thio)-1-(4-bromophenyl)ethylidene)-2-((E)-4-hydroxybenzylidene)hydrazine-1-carbothiohydrazide], the results for the IC50 in experiment [1] and in experiment [2] were 20.1 ± 0.2 µM and 21.1 ± 0.01 µM, respectively.

With `Oc1ccc(/C=N/NC(=S)NN=C(CSc2nc3ccccc3[nH]2)c2ccc(-c3ccccc3)cc2)cc1` [derivative 10, N′-(2-((1H-Benzo[d]imidazol-2-yl)thio)-1-([1,1′-biphenyl]-4-yl)ethylidene)-2-((E)-4-hydroxybenzylidene)hydrazine-1-carbothiohydrazide], the results for the IC50 in experiment [1] and in experiment [2] were 10.2 ± 0.02 µM and 11.2 ± 0.1 µM, respectively.
